Legend:
BT-549 [1] = test: Growth inhibition of human BT549 cells after 48 hrs by sulforhodamine B assay; format: functional; conditions: BT-549, 48 h
NCI-H522 [2] = test: Growth inhibition of human NCI-H522 cells assessed as cell growth at 10 uM after 48 hrs by sulforhodamine B assay; format: functional; conditions: NCI-H522, 48 h, read-out: Activity
ACHN = test: Growth inhibition of human ACHN cells assessed as cell growth at 10 uM after 48 hrs by sulforhodamine B assay; format: functional; conditions: read-out: Activity
CCRF-CEM = test: Growth inhibition of human CCRF-CEM cells after 48 hrs by sulforhodamine B assay; format: functional
CAKI-1 [3] = test: Growth inhibition of human CAKI-1 cells assessed as cell growth at 10 uM after 48 hrs by sulforhodamine B assay; format: functional; conditions: CAKI-1, 48 h, read-out: Activity
SK-MEL-28 = test: Growth inhibition of human SK-MEL-28 cells after 48 hrs by sulforhodamine B assay; format: functional; conditions: SK-MEL-28, 48 h
UACC-62 = test: Growth inhibition of human UACC62 cells assessed as cell growth at 10 uM after 48 hrs by sulforhodamine B assay; format: functional; conditions: UACC-62, 48 h, read-out: Activity
[4] = Growth inhibition of human NCI-ADR-RES cells assessed as cell growth at 10 uM after 48 hrs by sulforhodamine B assay; format: functional; conditions: read-out: Activity
UO-31 = test: Growth inhibition of human UO31 cells assessed as cell growth at 10 uM after 48 hrs by sulforhodamine B assay; format: functional; conditions: UO-31, 48 h, read-out: Activity
SF-268 = test: Growth inhibition of human SF268 cells after 48 hrs by sulforhodamine B assay; format: functional; conditions: SF-268, 48 h; for CC50: read-out: LC50 (the source's name)
MCF7 = test: Growth inhibition of human MCF7 cells assessed as cell growth at 10 uM after 48 hrs by sulforhodamine B assay; format: functional; conditions: MCF7, 48 h, read-out: Activity
HOP-92 = test: Growth inhibition of human HOP92 cells assessed as cell growth at 10 uM after 48 hrs by sulforhodamine B assay; format: functional; conditions: HOP-92, 48 h, read-out: Activity
TK-10 = test: Growth inhibition of human TK10 cells after 48 hrs by sulforhodamine B assay; format: functional; conditions: TK-10, 48 h; for CC50: read-out: LC50 (the source's name)
COLO 205 [5] = test: Growth inhibition of human COLO205 cells after 48 hrs by sulforhodamine B assay; format: functional; conditions: COLO 205, 48 h
COLO 205 [6] = test: Growth inhibition of human COLO205 cells assessed as cell growth at 10 uM after 48 hrs by sulforhodamine B assay; format: functional; conditions: COLO 205, 48 h, read-out: Activity
786-0 = test: Growth inhibition of human 786-0 cells after 48 hrs by sulforhodamine B assay; format: functional; conditions: 786-0, 48 h; for CC50: read-out: LC50 (the source's name)
[7] = Growth inhibition of human HCC2998 cells assessed as cell growth at 10 uM after 48 hrs by sulforhodamine B assay; format: functional; conditions: HCC 2998, 48 h, read-out: Activity
SW-620 = test: Growth inhibition of human SW620 cells assessed as cell growth at 10 uM after 48 hrs by sulforhodamine B assay; format: functional; conditions: SW-620, 48 h, read-out: Activity
NCI-H322M = test: Growth inhibition of human NCI-H322M cells after 48 hrs by sulforhodamine B assay; format: functional; conditions: for CC50: read-out: LC50 (the source's name)
MDA-MB-231 [8] = test: Growth inhibition of human MDA-MB-231 cells assessed as cell growth at 10 uM after 48 hrs by sulforhodamine B assay; format: functional; conditions: MDA-MB-231, 48 h, read-out: Activity
RPMI-8226 = test: Growth inhibition of human RPMI8226 cells after 48 hrs by sulforhodamine B assay; format: functional, cell-based; conditions: RPMI-8226, 48 h; for CC50: read-out: LC50 (the source's name)
NCI-H522 [9] = test: Growth inhibition of human NCI-H522 cells after 48 hrs by sulforhodamine B assay; format: functional; conditions: NCI-H522, 48 h
MDA-MB-231 [10] = test: Growth inhibition of human MDA-MB-231 cells after 48 hrs by sulforhodamine B assay; format: functional; conditions: MDA-MB-231, 48 h
[11] = Growth inhibition of human Hs 578T cells after 48 hrs by sulforhodamine B assay; format: functional; conditions: for CC50: read-out: LC50 (the source's name)
MDA-MB-435 = test: Growth inhibition of human MDA-MB-435 cells after 48 hrs by sulforhodamine B assay; format: functional, cell-based; conditions: MDA-MB-435, 48 h; for CC50: read-out: LC50 (the source's name)
Malme-3M = test: Growth inhibition of human MALME-3M cells after 48 hrs by sulforhodamine B assay; format: functional
CAKI-1 [12] = test: Growth inhibition of human CAKI-1 cells after 48 hrs by sulforhodamine B assay; format: functional; conditions: CAKI-1, 48 h; for CC50: read-out: LC50 (the source's name)
OVCAR-8 [13] = test: Growth inhibition of human OVCAR8 cells assessed as cell growth at 10 uM after 48 hrs by sulforhodamine B assay; format: functional; conditions: OVCAR-8, 48 h, read-out: Activity
K562 = test: Growth inhibition of human K562 cells assessed as cell growth at 10 uM after 48 hrs by sulforhodamine B assay; format: functional; conditions: K562, 48 h, read-out: Activity
OVCAR-8 [14] = test: Growth inhibition of human OVCAR8 cells after 48 hrs by sulforhodamine B assay; format: functional; conditions: OVCAR-8, 48 h; for CC50: read-out: LC50 (the source's name)
BT-549 [15] = test: Growth inhibition of human BT549 cells assessed as cell growth at 10 uM after 48 hrs by sulforhodamine B assay; format: functional; conditions: BT-549, 48 h, read-out: Activity
M14 = test: Growth inhibition of human M14 cells assessed as cell growth at 10 uM after 48 hrs by sulforhodamine B assay; format: functional; conditions: M14, 48 h, read-out: Activity
HL-60(TB) = test: Growth inhibition of human HL-60(TB) cells after 48 hrs by sulforhodamine B assay; format: functional; conditions: HL-60, 48 h; for CC50: read-out: LC50 (the source's name)
OVCAR-5 = test: Growth inhibition of human OVCAR5 cells assessed as cell growth at 10 uM after 48 hrs by sulforhodamine B assay; format: functional; conditions: OVCAR-5, 48 h, read-out: Activity

COc1cc(-c2nn(-c3cccc(NC(=O)Nc4ccc(Cl)c(C(F)(F)F)c4)c3)cc2-c2ccncc2)ccc1Cl
GI50 (BT-549 [1]): 2360 nM
LC50 (50% lethal concentration) (BT-549 [1]): > 32.5 µM
TGI (BT-549 [1]): 10.2 µM
growth at 10 µM (NCI-H522 [2]): -13.9%
growth at 10 µM (ACHN): 9.33%
GI50 (CCRF-CEM): 980 nM
LC50 (CCRF-CEM): > 32.5 µM
TGI (CCRF-CEM): > 32.5 µM
growth at 10 µM (CAKI-1 [3]): 14.7%
GI50 (SK-MEL-28): 1200 nM
LC50 (SK-MEL-28): 19.1 µM
TGI (SK-MEL-28): 5.01 µM
growth at 10 µM (UACC-62): -43.8%
growth at 10 µM [4]: -0.86%
growth at 10 µM (UO-31): 11%
GI50 (SF-268): 1460 nM
TGI (SF-268): 9.14 µM
CC50 (SF-268): > 32.5 µM
growth at 10 µM (MCF7): 0.14%
growth at 10 µM (HOP-92): -37.5%
GI50 (TK-10): 1520 nM
TGI (TK-10): 13.5 µM
CC50 (TK-10): > 32.5 µM
GI50 (COLO 205 [5]): 711 nM
LC50 (concentration killing 50% of cells) (COLO 205 [5]): 3.48 µM
TGI (COLO 205 [5]): 1540 nM
growth at 10 µM (COLO 205 [6]): -91.6%
GI50 (786-0): 1610 nM
TGI (786-0): 8.02 µM
CC50 (786-0): > 32.5 µM
growth at 10 µM [7]: 8.88%
growth at 10 µM (SW-620): 15.4%
GI50 (NCI-H322M): 1500 nM
TGI (NCI-H322M): 13.9 µM
CC50 (NCI-H322M): > 32.5 µM
growth at 10 µM (MDA-MB-231 [8]): -52.4%
GI50 (RPMI-8226): 868 nM
IC50 (RPMI-8226): 870 nM
TGI (RPMI-8226): 3.25 µM
CC50 (RPMI-8226): > 32.5 µM
GI50 (NCI-H522 [9]): 1140 nM
LC50 (concentration killing 50% of cells) (NCI-H522 [9]): > 32.5 µM
TGI (NCI-H522 [9]): 6.06 µM
GI50 (MDA-MB-231 [10]): 760 nM
LC50 (MDA-MB-231 [10]): 13.3 µM
TGI (MDA-MB-231 [10]): 2600 nM
GI50 [11]: 1320 nM
TGI [11]: 18.3 µM
CC50 [11]: > 32.5 µM
GI50 (MDA-MB-435): 683 nM
IC50 (MDA-MB-435): 680 nM
TGI (MDA-MB-435): 1690 nM
CC50 (MDA-MB-435): > 32.5 µM
GI50 (Malme-3M): 838 nM
LC50 (concentration killing 50% of starting cells) (Malme-3M): > 32.5 µM
TGI (Malme-3M): 2350 nM
GI50 (CAKI-1 [12]): 992 nM
TGI (CAKI-1 [12]): 4.72 µM
CC50 (CAKI-1 [12]): > 32.5 µM
growth at 10 µM (OVCAR-8 [13]): -19.9%
growth at 10 µM (K562): 3.8%
GI50 (OVCAR-8 [14]): 1050 nM
TGI (OVCAR-8 [14]): 5.87 µM
CC50 (OVCAR-8 [14]): > 32.5 µM
growth at 10 µM (BT-549 [15]): 7.16%
growth at 10 µM (M14): -11.7%
GI50 (HL-60(TB)): 1170 nM
TGI (HL-60(TB)): > 32.5 µM
CC50 (HL-60(TB)): > 32.5 µM
growth at 10 µM (OVCAR-5): 35.8%

O=C(Nc1cccc(-n2cc(-c3ccncc3)c(-c3ccc(Cl)c(O)c3)n2)c1)Nc1cc(C(F)(F)F)cc(C(F)(F)F)c1
GI50 (BT-549 [1]): 1090 nM
LC50 (50% lethal concentration) (BT-549 [1]): 4.11 µM
TGI (BT-549 [1]): 2.12 µM
growth at 10 µM (NCI-H522 [2]): -50.1%
growth at 10 µM (ACHN): 8.48%
GI50 (CCRF-CEM): 789 nM
LC50 (CCRF-CEM): > 50 µM
TGI (CCRF-CEM): 6.78 µM
growth at 10 µM (CAKI-1 [3]): 8.94%
GI50 (SK-MEL-28): 796 nM
LC50 (SK-MEL-28): 3.09 µM
TGI (SK-MEL-28): 1.57 µM
growth at 10 µM (UACC-62): -65.6%
growth at 10 µM [4]: 4.72%
growth at 10 µM (UO-31): -34.4%
GI50 (SF-268): 846 nM
TGI (SF-268): 2.69 µM
CC50 (SF-268): 20.5 µM
growth at 10 µM (MCF7): 2.71%
growth at 10 µM (HOP-92): -45.8%
GI50 (TK-10): 959 nM
TGI (TK-10): 3.58 µM
CC50 (TK-10): 14.2 µM
GI50 (COLO 205 [5]): 853 nM
LC50 (concentration killing 50% of cells) (COLO 205 [5]): 2.92 µM
TGI (COLO 205 [5]): 1580 nM
growth at 10 µM (COLO 205 [6]): -97.3%
GI50 (786-0): 1170 nM
TGI (786-0): 3.16 µM
CC50 (786-0): 18 µM
growth at 10 µM [7]: -56.9%
growth at 10 µM (SW-620): 3.32%
GI50 (NCI-H322M): 1310 nM
TGI (NCI-H322M): 5.39 µM
CC50 (NCI-H322M): 23.6 µM
growth at 10 µM (MDA-MB-231 [8]): -88.9%
GI50 (RPMI-8226): 477 nM
IC50 (RPMI-8226): 480 nM
TGI (RPMI-8226): > 50 µM
CC50 (RPMI-8226): > 50 µM
GI50 (NCI-H522 [9]): 724 nM
LC50 (concentration killing 50% of cells) (NCI-H522 [9]): 12.8 µM
TGI (NCI-H522 [9]): 2.51 µM
GI50 (MDA-MB-231 [10]): 739 nM
LC50 (MDA-MB-231 [10]): 3.72 µM
TGI (MDA-MB-231 [10]): 1660 nM
GI50 [11]: 1140 nM
TGI [11]: 4.08 µM
CC50 [11]: > 50 µM
GI50 (MDA-MB-435): 910 nM
IC50 (MDA-MB-435): 910 nM
TGI (MDA-MB-435): 2590 nM
CC50 (MDA-MB-435): 15.6 µM
GI50 (Malme-3M): 939 nM
LC50 (concentration killing 50% of starting cells) (Malme-3M): 23.5 µM
TGI (Malme-3M): 3030 nM
GI50 (CAKI-1 [12]): 1010 nM
TGI (CAKI-1 [12]): 4.42 µM
CC50 (CAKI-1 [12]): 26.5 µM
growth at 10 µM (OVCAR-8 [13]): -12.2%
growth at 10 µM (K562): -19.6%
GI50 (OVCAR-8 [14]): 563 nM
TGI (OVCAR-8 [14]): 5.92 µM
CC50 (OVCAR-8 [14]): 43.7 µM
growth at 10 µM (BT-549 [15]): -36%
growth at 10 µM (M14): -37.2%
GI50 (HL-60(TB)): 1500 nM
TGI (HL-60(TB)): 13.5 µM
CC50 (HL-60(TB)): > 50 µM
growth at 10 µM (OVCAR-5): -32.9%
